This passage reports AC50 results from ChEMBL document CHEMBL5291721, “A preclinical secondary pharmacology resource illuminates target-adverse drug reaction associations of marketed drugs” (Nat Commun, 2023).

A value given as a limit tells only on which side of the number the result lay.

The target of one assay is Acetylcholinesterase (Homo sapiens, UniProt P22303). Type of assay: functional.
The next assay deals with T1, Adenosine receptor A3 (Homo sapiens, UniProt P0DMS8).
T1 sequence (P0DMS8 whole entry): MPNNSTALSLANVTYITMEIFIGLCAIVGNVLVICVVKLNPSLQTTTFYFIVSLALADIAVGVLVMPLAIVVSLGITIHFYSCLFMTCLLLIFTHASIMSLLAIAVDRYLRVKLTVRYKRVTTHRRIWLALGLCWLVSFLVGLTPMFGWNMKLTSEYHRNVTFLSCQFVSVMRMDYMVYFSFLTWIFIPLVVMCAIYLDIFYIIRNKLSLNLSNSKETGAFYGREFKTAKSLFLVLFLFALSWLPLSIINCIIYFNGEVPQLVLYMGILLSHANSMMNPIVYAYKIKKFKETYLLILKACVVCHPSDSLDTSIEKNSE

The next assay addresses D(3) dopamine receptor (Homo sapiens, UniProt P35462).
The target in another assay is Prothrombin (Homo sapiens, UniProt P00734). It counts as functional.
Assay [1] has as its target T2, 5-hydroxytryptamine receptor 1A (Homo sapiens, UniProt P08908).
T2 sequence (P08908 whole entry): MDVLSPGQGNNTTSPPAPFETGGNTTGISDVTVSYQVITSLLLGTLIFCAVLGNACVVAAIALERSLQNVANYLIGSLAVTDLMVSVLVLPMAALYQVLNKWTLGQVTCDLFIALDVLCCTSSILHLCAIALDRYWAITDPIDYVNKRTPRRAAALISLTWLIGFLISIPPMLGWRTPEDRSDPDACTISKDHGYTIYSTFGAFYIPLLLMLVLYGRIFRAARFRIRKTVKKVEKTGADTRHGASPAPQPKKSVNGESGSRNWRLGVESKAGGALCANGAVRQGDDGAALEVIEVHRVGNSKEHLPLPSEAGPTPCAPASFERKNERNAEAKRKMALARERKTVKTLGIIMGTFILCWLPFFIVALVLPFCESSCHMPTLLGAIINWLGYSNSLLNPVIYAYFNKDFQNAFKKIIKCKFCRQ

Assay [2] has as its target 5-hydroxytryptamine receptor 2B (Homo sapiens, UniProt P41595). It counts as functional, cell-based.
Assay [3] addresses Vascular endothelial growth factor receptor 2 (Homo sapiens, UniProt P35968). Type of assay: functional.
The target of assay [4] is T3, Amine oxidase [flavin-containing] A (Homo sapiens, UniProt P21397).
T3 sequence (P21397 whole entry): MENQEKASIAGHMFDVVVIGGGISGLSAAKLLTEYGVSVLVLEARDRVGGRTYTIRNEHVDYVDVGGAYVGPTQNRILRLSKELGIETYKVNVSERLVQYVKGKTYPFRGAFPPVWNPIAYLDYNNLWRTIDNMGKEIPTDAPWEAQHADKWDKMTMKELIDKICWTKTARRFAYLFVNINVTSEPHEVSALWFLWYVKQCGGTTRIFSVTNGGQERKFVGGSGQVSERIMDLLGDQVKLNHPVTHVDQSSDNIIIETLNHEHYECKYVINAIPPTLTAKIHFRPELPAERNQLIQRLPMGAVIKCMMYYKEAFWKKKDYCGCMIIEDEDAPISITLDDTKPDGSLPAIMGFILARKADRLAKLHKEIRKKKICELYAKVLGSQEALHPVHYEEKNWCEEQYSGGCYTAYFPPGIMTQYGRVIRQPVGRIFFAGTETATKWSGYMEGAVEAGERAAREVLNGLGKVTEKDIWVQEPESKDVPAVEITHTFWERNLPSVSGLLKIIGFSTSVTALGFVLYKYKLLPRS
It counts as functional.

In assay [5] the target is cGMP-inhibited 3',5'-cyclic phosphodiesterase 3A (Homo sapiens, UniProt Q14432). Type of assay: functional.
Sequence of cGMP-inhibited 3',5'-cyclic phosphodiesterase 3A (Q14432 whole entry): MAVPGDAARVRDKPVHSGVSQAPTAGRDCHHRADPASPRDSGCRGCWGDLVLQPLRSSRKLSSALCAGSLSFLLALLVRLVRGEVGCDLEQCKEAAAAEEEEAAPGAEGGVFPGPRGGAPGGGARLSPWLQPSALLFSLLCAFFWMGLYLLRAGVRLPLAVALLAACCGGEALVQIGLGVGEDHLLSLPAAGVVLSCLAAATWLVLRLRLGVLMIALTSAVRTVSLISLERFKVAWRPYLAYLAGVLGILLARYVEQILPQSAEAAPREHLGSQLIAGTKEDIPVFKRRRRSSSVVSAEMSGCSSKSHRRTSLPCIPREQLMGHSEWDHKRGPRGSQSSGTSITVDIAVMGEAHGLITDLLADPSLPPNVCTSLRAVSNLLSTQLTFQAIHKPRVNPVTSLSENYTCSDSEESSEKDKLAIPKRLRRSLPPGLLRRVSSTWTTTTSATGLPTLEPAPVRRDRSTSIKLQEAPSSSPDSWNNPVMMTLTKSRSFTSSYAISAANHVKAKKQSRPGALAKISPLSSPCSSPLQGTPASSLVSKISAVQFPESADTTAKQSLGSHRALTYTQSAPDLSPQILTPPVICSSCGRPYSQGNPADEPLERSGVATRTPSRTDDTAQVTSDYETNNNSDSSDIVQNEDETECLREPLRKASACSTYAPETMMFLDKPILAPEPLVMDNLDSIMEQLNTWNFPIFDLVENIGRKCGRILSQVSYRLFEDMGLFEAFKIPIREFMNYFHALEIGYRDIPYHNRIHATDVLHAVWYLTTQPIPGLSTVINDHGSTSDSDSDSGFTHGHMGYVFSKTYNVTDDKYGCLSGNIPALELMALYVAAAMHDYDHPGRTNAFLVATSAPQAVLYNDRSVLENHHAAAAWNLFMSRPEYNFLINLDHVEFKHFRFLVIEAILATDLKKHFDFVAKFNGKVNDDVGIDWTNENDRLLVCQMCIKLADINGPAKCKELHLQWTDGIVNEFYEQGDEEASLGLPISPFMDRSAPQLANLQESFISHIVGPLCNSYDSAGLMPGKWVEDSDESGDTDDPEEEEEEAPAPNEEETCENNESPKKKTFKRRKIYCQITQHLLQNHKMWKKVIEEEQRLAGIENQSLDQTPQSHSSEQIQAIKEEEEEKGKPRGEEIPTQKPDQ
For assay [6], the target named is Sodium-dependent noradrenaline transporter (Homo sapiens, UniProt P23975).
The target in assay [7] is Sodium-dependent dopamine transporter (Homo sapiens, UniProt Q01959).
Sequence of Sodium-dependent dopamine transporter (Q01959 whole entry): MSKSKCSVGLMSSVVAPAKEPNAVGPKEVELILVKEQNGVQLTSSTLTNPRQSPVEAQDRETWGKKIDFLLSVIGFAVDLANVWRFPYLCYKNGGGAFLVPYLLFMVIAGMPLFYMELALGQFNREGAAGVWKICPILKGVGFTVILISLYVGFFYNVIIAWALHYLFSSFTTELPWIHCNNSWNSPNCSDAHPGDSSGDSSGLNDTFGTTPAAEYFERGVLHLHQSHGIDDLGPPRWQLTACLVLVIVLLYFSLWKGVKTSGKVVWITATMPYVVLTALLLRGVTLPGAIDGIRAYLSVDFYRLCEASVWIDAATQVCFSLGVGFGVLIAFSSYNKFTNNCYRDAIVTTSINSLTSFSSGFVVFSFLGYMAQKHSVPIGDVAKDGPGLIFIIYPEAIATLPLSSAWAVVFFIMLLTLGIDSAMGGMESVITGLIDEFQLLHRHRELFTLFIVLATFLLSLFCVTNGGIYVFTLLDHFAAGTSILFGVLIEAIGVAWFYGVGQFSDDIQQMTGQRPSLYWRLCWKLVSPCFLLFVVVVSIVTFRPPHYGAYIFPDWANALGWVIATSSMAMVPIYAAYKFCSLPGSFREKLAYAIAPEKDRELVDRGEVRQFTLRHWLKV
The target of the next assay is T4, Thromboxane A2 receptor (Homo sapiens, UniProt P21731).
T4 sequence (P21731 whole entry): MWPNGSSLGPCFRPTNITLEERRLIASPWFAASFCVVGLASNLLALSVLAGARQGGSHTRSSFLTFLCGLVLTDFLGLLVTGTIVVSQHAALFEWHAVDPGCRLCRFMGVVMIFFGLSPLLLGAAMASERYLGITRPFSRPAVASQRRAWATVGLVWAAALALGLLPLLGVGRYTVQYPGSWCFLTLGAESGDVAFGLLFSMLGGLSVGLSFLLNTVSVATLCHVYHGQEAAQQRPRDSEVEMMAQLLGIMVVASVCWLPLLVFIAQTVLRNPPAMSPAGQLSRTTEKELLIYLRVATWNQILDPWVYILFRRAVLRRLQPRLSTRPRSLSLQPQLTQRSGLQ
Type of assay: functional, cell-based.

For a further assay, the target named is T5, Estrogen receptor (Homo sapiens, UniProt P03372).
T5 sequence (P03372 whole entry): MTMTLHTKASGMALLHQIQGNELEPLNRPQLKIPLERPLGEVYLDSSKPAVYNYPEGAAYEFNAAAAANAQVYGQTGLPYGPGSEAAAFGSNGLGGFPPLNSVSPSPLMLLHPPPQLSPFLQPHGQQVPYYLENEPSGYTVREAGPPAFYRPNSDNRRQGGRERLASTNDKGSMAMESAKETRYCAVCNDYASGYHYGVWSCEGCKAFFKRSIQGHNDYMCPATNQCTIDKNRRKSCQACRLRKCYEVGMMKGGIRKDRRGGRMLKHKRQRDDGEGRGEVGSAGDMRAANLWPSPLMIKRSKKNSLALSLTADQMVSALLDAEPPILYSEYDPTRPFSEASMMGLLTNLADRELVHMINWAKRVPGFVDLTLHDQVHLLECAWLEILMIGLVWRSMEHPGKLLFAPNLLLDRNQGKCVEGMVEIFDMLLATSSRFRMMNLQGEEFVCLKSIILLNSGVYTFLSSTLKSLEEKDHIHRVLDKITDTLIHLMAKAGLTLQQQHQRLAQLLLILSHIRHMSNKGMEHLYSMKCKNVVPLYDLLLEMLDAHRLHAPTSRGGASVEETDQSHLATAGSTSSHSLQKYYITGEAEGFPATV

The target of assay [8] is Prostaglandin G/H synthase 1 (Homo sapiens, UniProt P23219). It counts as functional.
Sequence of Prostaglandin G/H synthase 1 (P23219 whole entry): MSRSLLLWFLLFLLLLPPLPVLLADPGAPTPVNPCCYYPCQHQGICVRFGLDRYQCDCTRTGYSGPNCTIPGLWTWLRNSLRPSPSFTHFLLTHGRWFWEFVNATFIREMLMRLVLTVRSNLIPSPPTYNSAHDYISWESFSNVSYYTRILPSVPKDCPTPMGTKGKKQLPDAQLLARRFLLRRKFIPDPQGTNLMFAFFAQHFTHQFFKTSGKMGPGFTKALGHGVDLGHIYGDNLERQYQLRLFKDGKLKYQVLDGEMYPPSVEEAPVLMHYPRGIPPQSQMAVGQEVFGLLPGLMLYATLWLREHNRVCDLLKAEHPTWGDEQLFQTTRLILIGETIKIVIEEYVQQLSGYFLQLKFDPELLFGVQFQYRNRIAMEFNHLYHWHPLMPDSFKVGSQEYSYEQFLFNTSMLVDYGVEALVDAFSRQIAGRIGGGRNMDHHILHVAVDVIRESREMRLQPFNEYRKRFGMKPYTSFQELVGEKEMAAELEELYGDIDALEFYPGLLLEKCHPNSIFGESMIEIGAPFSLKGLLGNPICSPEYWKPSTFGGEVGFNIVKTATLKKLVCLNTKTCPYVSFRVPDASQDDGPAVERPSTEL
In assay [9] the target is Voltage-gated inwardly rectifying potassium channel KCNH2 (Homo sapiens, UniProt Q12809). It counts as functional. The settings on record: read-out: AC50.
Further: assay procedure not described here.

Sequence of Vascular endothelial growth factor receptor 2 (P35968 whole entry): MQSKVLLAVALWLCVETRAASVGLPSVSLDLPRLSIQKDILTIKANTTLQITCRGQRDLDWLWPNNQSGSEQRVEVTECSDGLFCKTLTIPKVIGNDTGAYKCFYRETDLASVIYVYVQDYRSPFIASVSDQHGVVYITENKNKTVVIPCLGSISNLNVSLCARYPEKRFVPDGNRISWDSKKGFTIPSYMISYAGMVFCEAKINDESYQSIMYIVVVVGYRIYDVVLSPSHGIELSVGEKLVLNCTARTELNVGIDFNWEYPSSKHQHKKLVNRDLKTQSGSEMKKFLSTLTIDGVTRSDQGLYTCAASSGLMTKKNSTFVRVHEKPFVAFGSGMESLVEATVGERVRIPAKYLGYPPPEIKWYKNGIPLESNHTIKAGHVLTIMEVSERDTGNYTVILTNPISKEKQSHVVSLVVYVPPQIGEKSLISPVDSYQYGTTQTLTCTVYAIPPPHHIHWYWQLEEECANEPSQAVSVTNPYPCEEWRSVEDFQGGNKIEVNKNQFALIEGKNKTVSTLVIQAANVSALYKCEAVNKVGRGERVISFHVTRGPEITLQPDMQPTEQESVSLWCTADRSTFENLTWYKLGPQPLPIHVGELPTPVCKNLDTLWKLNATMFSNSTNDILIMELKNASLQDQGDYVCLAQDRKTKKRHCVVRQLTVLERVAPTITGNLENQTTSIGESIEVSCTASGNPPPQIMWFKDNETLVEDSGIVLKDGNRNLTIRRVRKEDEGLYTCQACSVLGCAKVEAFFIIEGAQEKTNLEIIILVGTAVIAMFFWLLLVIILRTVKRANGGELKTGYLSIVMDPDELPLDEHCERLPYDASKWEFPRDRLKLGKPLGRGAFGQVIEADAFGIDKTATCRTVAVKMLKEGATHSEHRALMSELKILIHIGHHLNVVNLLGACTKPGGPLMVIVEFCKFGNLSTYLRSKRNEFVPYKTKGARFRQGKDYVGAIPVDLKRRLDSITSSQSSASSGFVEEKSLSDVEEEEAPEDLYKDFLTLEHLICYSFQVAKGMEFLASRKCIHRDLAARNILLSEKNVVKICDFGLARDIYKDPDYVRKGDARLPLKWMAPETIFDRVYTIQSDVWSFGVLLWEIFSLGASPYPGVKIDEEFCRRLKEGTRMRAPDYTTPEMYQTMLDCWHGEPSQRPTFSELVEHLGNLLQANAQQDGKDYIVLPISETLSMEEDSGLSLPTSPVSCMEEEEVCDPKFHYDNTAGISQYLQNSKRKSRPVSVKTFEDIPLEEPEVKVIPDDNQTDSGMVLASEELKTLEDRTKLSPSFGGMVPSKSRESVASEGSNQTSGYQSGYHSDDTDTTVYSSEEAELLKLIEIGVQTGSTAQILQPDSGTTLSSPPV
Sequence of 5-hydroxytryptamine receptor 2B (P41595 whole entry): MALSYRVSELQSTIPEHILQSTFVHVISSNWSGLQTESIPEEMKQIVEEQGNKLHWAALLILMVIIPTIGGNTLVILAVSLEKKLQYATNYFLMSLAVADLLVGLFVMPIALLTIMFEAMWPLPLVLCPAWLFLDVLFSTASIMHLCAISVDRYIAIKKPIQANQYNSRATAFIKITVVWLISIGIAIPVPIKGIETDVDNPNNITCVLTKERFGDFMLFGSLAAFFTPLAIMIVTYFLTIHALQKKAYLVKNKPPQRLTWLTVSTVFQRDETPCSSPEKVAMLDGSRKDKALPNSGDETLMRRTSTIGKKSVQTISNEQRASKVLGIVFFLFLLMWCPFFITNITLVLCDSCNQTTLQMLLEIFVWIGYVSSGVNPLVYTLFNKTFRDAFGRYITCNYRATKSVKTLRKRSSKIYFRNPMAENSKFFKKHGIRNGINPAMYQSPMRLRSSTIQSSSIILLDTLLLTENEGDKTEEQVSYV
Sequence of Acetylcholinesterase (P22303 whole entry): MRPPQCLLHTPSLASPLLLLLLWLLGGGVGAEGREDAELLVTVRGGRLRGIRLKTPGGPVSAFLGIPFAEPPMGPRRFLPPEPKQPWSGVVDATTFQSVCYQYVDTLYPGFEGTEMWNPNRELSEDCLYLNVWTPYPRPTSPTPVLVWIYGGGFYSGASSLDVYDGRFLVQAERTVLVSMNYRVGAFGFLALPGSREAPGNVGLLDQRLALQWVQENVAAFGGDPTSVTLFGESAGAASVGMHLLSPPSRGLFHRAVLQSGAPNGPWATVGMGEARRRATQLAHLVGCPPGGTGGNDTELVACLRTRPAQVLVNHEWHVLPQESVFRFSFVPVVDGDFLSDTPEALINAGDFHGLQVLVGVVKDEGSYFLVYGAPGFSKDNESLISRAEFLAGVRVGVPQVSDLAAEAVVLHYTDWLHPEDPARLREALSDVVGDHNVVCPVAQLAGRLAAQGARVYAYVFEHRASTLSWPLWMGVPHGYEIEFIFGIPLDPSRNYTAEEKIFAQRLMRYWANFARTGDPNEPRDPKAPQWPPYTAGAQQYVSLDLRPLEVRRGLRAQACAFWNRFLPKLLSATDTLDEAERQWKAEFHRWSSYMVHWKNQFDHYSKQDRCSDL

Take `CC1=C(/C=C/C(C)=C\C=C\C(C)=C\C(=O)O)C(C)(C)CCC1` [ALITRETINOIN]: the AC50 (on Acetylcholinesterase; at Adenosine receptor A3; at D(3) dopamine receptor; on Prothrombin; in assay [1]; in [2]) was more than 30 µM throughout. For the same compound, the AC50 (in [3]; in assay [4]; in [5]; in assay [6]; in assay [7]; at Thromboxane A2 receptor) was more than 30 µM in each case.
Turning to `N=C(N)NC(=O)c1nc(Cl)c(N)nc1N` [AMILORIDE], the AC50 is more than 30 µM at Acetylcholinesterase; more than 30 µM at D(3) dopamine receptor; more than 30 µM at Estrogen receptor; more than 30 µM at Prothrombin; 11.1 µM in assay [1]; more than 30 µM in assay [2]. In addition, the AC50 in assay [4] is 5.24 µM; in assay [5], more than 30 µM; in [8], more than 30 µM; in assay [6], more than 30 µM; in [7], more than 30 µM; on Thromboxane A2 receptor, more than 30 µM.
In the case of `COc1ccc(-c2cc(=S)ss2)cc1` [ANETHOLTRITHION], the AC50 in assay [9] was found to be 23.3 µM.
On the same count and under the same terms, then `C[C@]12CCC(=O)C=C1C=C[C@@H]1[C@@H]2CC[C@@]2(C)[C@H]1CC[C@@]21CCC(=O)O1` [CANRENONE], with more than 30 µM.
Regarding `O=NN(CCCl)C(=O)NCCCl` [CARMUSTINE], the concentration at half-maximal activity (AC50) (on Acetylcholinesterase; at D(3) dopamine receptor; in assay [1]; in [2]; in assay [4]; in [6]) was more than 30 µM throughout. The same compound registered an AC50 in assay [7] of more than 30 µM.
As to `CN(C)CCC(O)(c1ccccc1)c1ccccc1Cl` (stereo not drawn) [CHLOPHEDIANOL], the AC50 in assay [9] was 3.4 µM.
For `C[C@]12C=CC(=O)C=C1C(Cl)=C[C@@H]1[C@@H]2[C@@H](O)C[C@@]2(C)[C@H]1CC[C@]2(O)C(=O)CO` [CLOPREDNOL], the AC50 in assay [9] was more than 30 µM.
On to `COc1cccc2c1C(=O)c1c(O)c3c(c(O)c1C2=O)C[C@@](O)(C(=O)CO)C[C@@H]3O[C@H]1C[C@H](N)[C@H](O)[C@H](C)O1` [DOXORUBICIN], for which the AC50 (on Acetylcholinesterase; at Adenosine receptor A3; on D(3) dopamine receptor; on Estrogen receptor; at Prothrombin; in assay [1]) was more than 30 µM in each case. Moreover, the AC50 in assay [2] is more than 30 µM; in assay [9], 5.63 µM; in [4], more than 30 µM; in assay [5], more than 30 µM; in assay [8], more than 30 µM; in assay [6], more than 30 µM. Also, the AC50 in [7] is more than 30 µM; on Thromboxane A2 receptor, more than 3 µM.
Take `C[C@]12CCC(=O)C=C1[C@@H]1C[C@@H]1[C@H]1[C@@H]3[C@@H]4C[C@@H]4[C@@]4(CCC(=O)O4)[C@@]3(C)CC[C@@H]12` [DROSPIRENONE]: the AC50 in assay [9] was more than 30 µM.
As to `COc1cccc2c1C(=O)c1c(O)c3c(c(O)c1C2=O)C[C@@](O)(C(=O)CO)C[C@@H]3O[C@H]1C[C@H](N)[C@@H](O)[C@H](C)O1` [EPIRUBICIN], the AC50 was 17 µM at Acetylcholinesterase; more than 30 µM on Adenosine receptor A3; more than 30 µM at D(3) dopamine receptor; more than 30 µM on Estrogen receptor; more than 30 µM at Prothrombin; more than 30 µM in [1]. The AC50 in [2], in assay [4], in [5], in [8], in [6] and in assay [7] was more than 30 µM throughout. The AC50 at Thromboxane A2 receptor was more than 30 µM.
Regarding `CC(C)(Oc1ccc(Cl)cc1)C(=O)OCCOC(=O)c1cccnc1` [ETOFIBRATE], in assay [9], the AC50 was more than 30 µM.
For `CC1=C(/C=C/C(C)=C/C=C/C(C)=C\C(=O)O)C(C)(C)CCC1` [ISOTRETINOIN], the AC50 (on Acetylcholinesterase; on Adenosine receptor A3; on D(3) dopamine receptor; on Prothrombin; in assay [1]; in assay [2]) was more than 30 µM throughout. Further, the AC50 (in assay [3]; in assay [4]; in [5]; in assay [6]; in [7]; at Thromboxane A2 receptor) was more than 30 µM throughout.
On to `CCC(=O)c1ccc2c(c1)N(CC(C)N(C)C)c1ccccc1S2` (stereo not drawn) [PROPIOMAZINE], for which the AC50 in [9] stood at 0.685 µM.
Same read-out and setting: with `CN(C)[C@@H]1C(O)=C(C(=O)NCN2CCCC2)C(=O)[C@@]2(O)C(O)=C3C(=O)c4c(O)cccc4[C@@](C)(O)[C@H]3C[C@@H]12` [ROLITETRACYCLINE] the figure was more than 30 µM; with `CC1(C)O[C@@H]2C[C@H]3[C@@H]4CCC5=CC(=O)C=C[C@]5(C)[C@@]4(F)[C@@H](O)C[C@]3(C)[C@]2(C(=O)CO)O1` [TRIAMCINOLONE ACETONIDE], more than 30 µM.
Turning to `NS(=O)(=O)c1cc2c(cc1Cl)NC(C(Cl)Cl)NS2(=O)=O` (stereo not drawn) [TRICHLORMETHIAZIDE], the AC50 (on Acetylcholinesterase; at Adenosine receptor A3; on D(3) dopamine receptor; at Prothrombin; in assay [1]; in [2]) was more than 30 µM in each case. Further, the half-maximal activity concentration (AC50) in assay [3], in assay [4], in assay [5], in [8], in assay [6] and in assay [7] was more than 30 µM in each case. The compound also registered an AC50 at Thromboxane A2 receptor of more than 30 µM.
Regarding `Oc1cc(Cl)ccc1Oc1ccc(Cl)cc1Cl` [TRICLOSAN], the AC50 in assay [9] was more than 30 µM.

Broadly, the AC50 is the concentration giving half of the maximal activity seen.
